Legend:
[1] = system: J82; experiment: Cytotoxicity against human J82 cells incubated for 72 hrs by MTT assay; format: functional, cell-based; conditions: J82, 72 h
[2] = system: SK-MES-1; experiment: Cytotoxicity against human SK-MES-1 cells incubated for 72 hrs by MTT assay; format: functional, cell-based; conditions: SK-MES-1, 72 h
[3] = system: AGS; experiment: Cytotoxicity against human AGS cells incubated for 72 hrs by MTT assay; format: functional, cell-based
[4] = system: MCF7; experiment: Cytotoxicity against human MCF7 cells incubated for 72 hrs; format: functional, cell-based; conditions: MCF7, 72 h
[5] = system: RPMI-8226; experiment: Cytotoxicity against human RPMI-8226 cells assessed as inhibition of cell growth incubated for 72 hrs by MTT reagent based colorimetric assay; format: functional; conditions: RPMI-8226, 72 h
[6] = system: MCF7; experiment: Cytotoxicity against human MCF7 cells assessed as inhibition of cell growth incubated for 72 hrs by MTT reagent based colorimetric assay; format: functional; conditions: MCF7, 72 h
[7] = system: HepG2; experiment: Cytotoxicity against human HepG2 cells assessed as inhibition of cell growth incubated for 72 hrs by MTT reagent based colorimetric assay; format: functional; conditions: HepG2, 72 h
[8] = Antiproliferative activity against human TT cells assessed as inhibition of cell growth incubated for 72 hrs by WST-1 assay; format: functional, cell-based
[9] = system: HeLa; experiment: Cytotoxicity against human HeLa cells assessed as reduction in cell viability incubated for 24 hrs by MTT assay; format: functional, cell-based
[10] = system: A549; experiment: Cytotoxicity against human A549 cells assessed as reduction in cell viability incubated for 24 hrs by MTT assay; format: functional, cell-based; conditions: A549, 24 h
[11] = system: MCF7; experiment: Cytotoxicity against human MCF7 cells assessed as reduction in cell viability incubated for 24 hrs by MTT assay; format: functional, cell-based; conditions: MCF7, 24 h
[12] = system: AGS; experiment: Antiproliferative activity against human AGS cells assessed as inhibition of cell growth incubated for 24 hrs by MTT reagent based microplate reader assay; format: functional
[13] = Antiproliferative activity against human YCC-1 cells assessed as inhibition of cell growth incubated for 24 hrs by MTT reagent based microplate reader assay; format: functional; conditions: YCC-1, 24 h
[14] = system: MKN-28; experiment: Antiproliferative activity against human MKN-28 cells assessed as inhibition of cell growth incubated for 24 hrs by MTT reagent based microplate reader assay; format: functional; conditions: MKN-28, 24 h
[15] = system: HepG2; experiment: Antiproliferative activity against human HepG2 cells assessed as inhibition of cell growth incubated for 24 hrs by MTT reagent based microplate reader assay; format: functional; conditions: HepG2, 24 h
[16] = system: Hep 3B2; experiment: Antiproliferative activity against human Hep3B cells assessed as inhibition of cell growth incubated for 24 hrs by MTT reagent based microplate reader assay; format: functional
[17] = system: NCI-N87; experiment: Antiproliferative activity against human NCI-N87 cells assessed as inhibition of cell growth incubated for 24 hrs by MTT reagent based microplate reader assay; format: functional; conditions: NCI-N87, 24 h
[18] = Antiproliferative activity against human YCC-16 cells assessed as inhibition of cell growth incubated for 24 hrs by MTT reagent based microplate reader assay; format: functional; conditions: YCC-16, 24 h
[19] = Antiproliferative activity against human SNU-484 cells assessed as inhibition of cell growth incubated for 24 hrs by MTT reagent based microplate reader assay; format: functional; conditions: SNU-484, 24 h
[20] = Antiproliferative activity against human YCC-6 cells assessed as inhibition of cell growth incubated for 24 hrs by MTT reagent based microplate reader assay; format: functional; conditions: YCC-6, 24 h
[21] = system: Huh-7; experiment: Antiproliferative activity against human Huh-7 cells assessed as inhibition of cell growth incubated for 24 hrs by MTT reagent based microplate reader assay; format: functional; conditions: Huh-7, 24 h
[22] = system: MKN-45; experiment: Antiproliferative activity against human MKN-45 cells assessed as inhibition of cell growth incubated for 24 hrs by MTT reagent based microplate reader assay; format: functional; conditions: MKN-45, 24 h
[23] = Antiproliferative activity against human SNU-216 cells assessed as inhibition of cell growth incubated for 24 hrs by MTT reagent based microplate reader assay; format: functional; conditions: SNU-216, 24 h
[24] = system: A549; experiment: Antiproliferative activity against human A549 cells assessed as inhibition of cell growth incubated for 48 hrs by MTT reagent based microplate reader assay; format: functional; conditions: A549, 48 h
[25] = system: HCT-116; experiment: Antiproliferative activity against human HCT-116 cells assessed as inhibition of cell growth incubated for 48 hrs by MTT reagent based microplate reader assay; format: functional; conditions: HCT-116, 48 h
[26] = system: MCF7; experiment: Antiproliferative activity against human MCF7 cells assessed as inhibition of cell growth incubated for 48 hrs by MTT reagent based microplate reader assay; format: functional; conditions: MCF7, 48 h
[27] = system: PC-3; experiment: Antiproliferative activity against human PC-3 cells assessed as inhibition of cell growth incubated for 48 hrs by MTT reagent based microplate reader assay; format: functional; conditions: PC-3, 48 h
[28] = system: HeLa; experiment: Antiproliferative activity against human HeLa cells assessed as inhibition of cell growth incubated for 48 hrs by MTT reagent based microplate reader assay; format: functional
[29] = system: HepG2; experiment: Antiproliferative activity against human HepG2 cells assessed as inhibition of cell growth incubated for 48 hrs by MTT reagent based microplate reader assay; format: functional; conditions: HepG2, 48 h
[30] = system: PANC-1; experiment: Antiproliferative activity against human PANC-1 cells assessed as inhibition of cell growth incubated for 48 hrs by MTT reagent based microplate reader assay; format: functional; conditions: PANC-1, 48 h
[31] = system: HT-29; experiment: Antiproliferative activity against human HT-29 cells assessed as inhibition of cell growth incubated for 48 hrs by MTT reagent based microplate reader assay; format: functional; conditions: HT-29, 48 h
[32] = system: DU-145; experiment: Antiproliferative activity against human DU-145 cells assessed as inhibition of cell growth incubated for 48 hrs by MTT reagent based microplate reader assay; format: functional; conditions: DU-145, 48 h
[33] = system: ADR5000 cell line; experiment: Antiproliferative activity against human ADR5000 cell line assessed as inhibition of cell growth incubated for 72 hrs by resazurin assay; format: functional, cell-based; conditions: ADR5000, 72 h
[34] = system: CCRF-CEM; experiment: Antiproliferative activity against human CCRF-CEM cells assessed as inhibition of cell growth incubated for 72 hrs by resazurin assay; format: functional, cell-based
[35] = Antiproliferative activity against human A875 cells assessed as inhibition of cell growth incubated for 24 hrs by MTT reagent based microplate reader assay; format: functional; conditions: A875, 24 h
[36] = system: HL-60; experiment: Cytotoxicity against human HL-60 cells incubated for 72 hrs by MTT reagent based spectrophotometric analysis; format: functional, cell-based; conditions: HL-60, 72 h
[37] = system: A2780; experiment: Cytotoxicity against human A2780 cells incubated for 72 hrs by MTT reagent based spectrophotometric analysis; format: functional, cell-based; conditions: A2780, 72 h
[38] = system: PC-3; experiment: Cytotoxicity against human PC-3 cells incubated for 72 hrs by MTT reagent based spectrophotometric analysis; format: functional, cell-based; conditions: PC-3, 72 h
[39] = system: A549; experiment: Cytotoxicity against human A549 cells incubated for 72 hrs by MTT reagent based spectrophotometric analysis; format: functional, cell-based; conditions: A549, 72 h
[40] = system: MCF7; experiment: Antiproliferative activity against human MCF7 cells assessed as inhibition of cell growth incubated for 72 hrs by MTS assay; format: functional, cell-based; conditions: MCF7, 72 h
[41] = system: KATO III stomach cancer cell line; experiment: Antiproliferative activity against human KATO III stomach cancer cell line assessed as inhibition of cell growth incubated for 72 hrs by MTS assay; format: functional, cell-based
[42] = system: HepG2; experiment: Cytotoxicity against human HepG2 cells assessed as reduction in cell viability incubated for 72 hrs by MTT assay; format: functional, cell-based; conditions: HepG2, 72 h
[43] = system: MCF7; experiment: Cytotoxicity against human MCF7 cells assessed as reduction in cell viability incubated for 72 hrs by MTT assay; format: functional, cell-based; conditions: MCF7, 72 h
[44] = system: RPMI-8226; experiment: Cytotoxicity against human RPMI-8226 cells assessed as reduction in cell viability incubated for 72 hrs by MTT assay; format: functional, cell-based; conditions: RPMI-8226, 72 h

With `CCCCCC(=O)C1=C(/C(C(=O)OC)=C(\C)NC(Cc2c[nH]c3ccccc23)C(=O)OC)C(=O)c2ccccc2C1=O` (centres undefined) the IC50 [1] was 4500 nM, the IC50 [2] was 5500 nM and the IC50 [3] was 9300 nM.
`CCC/C=C/C(=O)C1=C(OC)C(=O)c2cc(OC)c(OC)cc2C1=O` gave an IC50 [4] of 15000 nM.
With `C[P+](C1=C([O-])C(=O)c2c(F)c(F)c(F)c(F)c2C1=O)(c1ccccc1)c1cc(F)cc(F)c1` (centres undefined) the IC50 [5] was 6400 nM, the IC50 [6] was 4600 nM and the IC50 [7] was 7100 nM.
Molecule `CC(C)=CC[C@@H](OC(=O)C=C(C)C)C1=CC(=O)c2c(O)ccc(O)c2C1=O` [DIMETHYLACRYLSHIKONIN] has an IC50 [8] of 1200 nM.
`O=C(Nc1ccc(S(=O)(=O)c2ccc(NC3=C(Sc4ccccc4)C(=O)c4ccccc4C3=O)cc2)cc1)c1cc(Cl)cc(Cl)c1` gave an IC50 [9] of 1170 nM, an IC50 [10] of 1980 nM and an IC50 [11] of 50 nM.
`COc1ccc(OC)c2c1C(=O)C=C(Sc1ccc3ccccc3c1)C2=O` gave an IC50 [12] of 420 nM, an IC50 [13] of 1300 nM and an IC50 [14] of 1200 nM. The IC50 [15] was 870 nM, the IC50 [16] was 900 nM and the IC50 [17] was 1530 nM. It also gave an IC50 [18] of 1580 nM, an IC50 [19] of 1440 nM and an IC50 [20] of 800 nM. It also gave an IC50 [21] of 2840 nM, an IC50 [22] of 820 nM and an IC50 [23] of 890 nM.
`CCCCCCCC/C=C\CCCCCCCC(=O)Oc1cccc2c1C(=O)C=C(C)C2=O` showed an IC50 [24] of 15400 nM, an IC50 [25] of 6500 nM and an IC50 [26] of 7200 nM. The IC50 [27] was 10000 nM, the IC50 [28] was 21000 nM and the IC50 [29] was 7400 nM. For the same molecule, the IC50 [30] was 16100 nM, the IC50 [31] was 2900 nM and the IC50 [32] was 8800 nM.
`CCOc1ccc(NC(=O)C2=C(SC(C)(C)C)C(=O)c3ccccc3C2=O)cc1` showed an IC50 [33] of 2000 nM and an IC50 [34] of 1900 nM.
`CC(C)=CC[C@@H](OC(=O)CCc1cc2ccccc2[nH]1)C1=CC(=O)c2c(O)ccc(O)c2C1=O` showed an IC50 [35] of 5 nM.
Work on `O=C1C=C(C(O)C[N+](=O)[O-])C(=O)c2c(O)ccc(O)c21` (centres undefined) yielded an IC50 [36] of 140 nM, an IC50 [37] of 110 nM and an IC50 [38] of 90 nM. It also gave an IC50 [39] of 1050 nM.
`CC(C)=CCCc1ccc2c(c1)C(=O)c1c(cnn1CCO)C2=O` gave an IC50 [40] of 27500 nM and an IC50 [41] of 25500 nM.
`CCOC(=O)CCCCCNC1=C(F)C(=O)c2c(F)c(F)c(F)c(F)c2C1=O` gave an IC50 [42] of 2100 nM, an IC50 [43] of 1400 nM and an IC50 [44] of 2800 nM.

Reference: ChEMBL document CHEMBL5512632, “Unlocking the potential of 1,4-naphthoquinones: A comprehensive review of their anticancer properties” (Eur J Med Chem, 2024)
